Measured values: ChEMBL document CHEMBL6078636, “A Spatiotemporally Controlled and Mitochondria-Targeted Prodrug of Hydrogen Sulfide Enables Mild Mitochondrial Uncoupling for the Prevention of Lipid Deposition” (J Med Chem, 2024)
Values belong to the molecule of their own block, whether it stands above or below them. Activity calls are given as the source filed them. The rule behind the calls is not given here.

Key:
[1] = Prodrug conversion assessed as H2S metabolite release upto 100 uM under photo-irradiation by methylene blue dye based analysis; assay type: ADME
AML12 [2] = assay: Cytotoxicity against mouse AML12 cells pretreated for 24 hrs followed by UV light-irradiation for 1 min by MTT assay; assay type: toxicity, cell-based; settings: aml12, 24.02 h, time 1441 min
[3] = Drug uptake in mouse AML12 cells at 10 uM incubated for 4 hrs followed by UV light-irradiation for 1 min by WSP-5 probe based analysis; assay type: ADME, cell-based; settings: aml12, 4.017 h, time 241 min
[4] = Prodrug release in mouse AML12 cells assessed as H2S metabolite release at 10 uM incubated for 4 hrs followed by UV light-irradiation for 1 min by 2-OH-Cou probe based analysis; assay type: ADME, cell-based; settings: aml12, 4.017 h, time 241 min
[5] = Prodrug conversion in mouse AML12 cells assessed as H2S metabolite release at 1 to 10 uM incubated for 4 hrs followed by UV light-irradiation for 1 min by WSP-5 probe based analysis; assay type: ADME, cell-based; settings: aml12, 4.017 h, dose 1-10 µM, time 241 min
[6] = Prodrug release in mouse AML12 cells assessed as H2S metabolite release at 1 to 10 uM incubated for 4 hrs followed by UV light-irradiation for 1 min by 2-OH-Cou probe based analysis; assay type: ADME, cell-based; settings: aml12, 4.017 h, dose 1-10 µM, time 241 min
AML12 [7] = assay: Induction of mitochondrial ROS via reverse electron transport driven by sulfide quinone oxidoreductase in mouse AML12 cells assessed as increase in ratio of CoQH2/CoQ levels under photo-irradiation; assay type: functional, cell-based
AML12 [8] = assay: Induction of mitochondrial ROS via reverse electron transport driven by sulfide quinone oxidoreductase in mouse AML12 cells assessed as decrease in ratio of NAD+/NADH levels under photo-irradiation; assay type: functional, cell-based
AML12 [9] = assay: Induction of mitochondrial ROS via reverse electron transport driven by sulfide quinone oxidoreductase in mouse AML12 cells assessed as decrease in ratio of NAD+/NADH levels under photo-irradiation in presence of rotenone; assay type: functional, cell-based
AML12 [10] = assay: Induction of mitochondrial ROS via reverse electron transport driven by sulfide quinone oxidoreductase in mouse AML12 cells under photo-irradiation by MitoSOX staining based analysis; assay type: functional, cell-based
AML12 [11] = assay: Induction of H2O2 generation in mitochondria of mouse AML12 cells under photo-irradiation; assay type: functional
AML12 [12] = assay: Induction of mitochondrial ROS in mouse AML12 cells harboring SQR knockdown under photo-irradiation; assay type: functional, cell-based
AML12 [13] = assay: Induction of H2O2 generation in mitochondria of mouse AML12 cells harboring SQR knockdown under photo-irradiation; assay type: functional
AML12 [14] = assay: Induction of mitochondrial uncoupling in oligomycin-treated mouse AML12 cells assessed as increase in OCR level at 10 uM incubated for 4 hrs followed by UV light-irradiation for 1 min under photo-irradiation; assay type: functional, cell-based; settings: time 241.0 min
AML12 [15] = assay: Induction of mitochondrial uncoupling in oligomycin-treated mouse AML12 cells assessed as decrease in intracellular ATP level incubated for 4 hrs followed by UV light-irradiation for 1 min under photo-irradiation; assay type: functional, cell-based; settings: dose <= 10.0 µM, time 241.0 min
AML12 [16] = assay: Inhibition of mitochondrial membrane potential in mouse AML12 cells under UV light-irradiation by JC-1 staining based analysis; assay type: functional, cell-based
[17] = Prodrug conversion in mouse AML12 cells assessed as H2S metabolite release at 10 uM incubated for 4 hrs followed by UV light-irradiation for 1 min by […] based analysis; assay type: ADME, cell-based; settings: aml12, 4 h
AML12 [18] = assay: Inhibition of mitochondrial membrane potential in mouse AML12 cells under UV light-irradiation measured for 30 mins by TMRE staining based analysis; assay type: functional, cell-based
AML12 [19] = assay: Inhibition of mitochondrial membrane potential in mouse AML12 cells under UV light-irradiation measured after 24 hrs by TMRE staining based analysis; assay type: functional, cell-based
AML12 [20] = assay: Activation of mitochondrial AMPK phosphorylation in mouse AML12 cells under light irradiation by Western blot analysis; assay type: cell-based; settings: filed as activator, dose <= 10.0 µM
AML12 [21] = assay: Activation of mitochondrial AMPK in mouse AML12 cells assessed as increase in pACC level under light irradiation by Western blot analysis; assay type: cell-based; settings: filed as activator, dose <= 10.0 µM
AML12 [22] = assay: Activation of mitochondrial AMPK in mouse AML12 cells assessed as increase in pMFF level under light irradiation upto 10 uM by Western blot analysis; assay type: cell-based; settings: filed as activator
AML12 [23] = assay: Activation of mitochondrial AMPK in mouse AML12 cells harboring SQR knockdown assessed as increase in pMFF level under light irradiation at 1 to 10 uM by Western blot analysis; assay type: cell-based; settings: dose 1-10 µM
AML12 [24] = assay: Activation of mitochondrial AMPK in mouse AML12 cells assessed as increase in pMFF level under light irradiation at 1 to 10 uM in presence of rotenone by Western blot analysis; assay type: cell-based; settings: dose 1-10 µM
AML12 [25] = assay: Activation of mitochondrial AMPK signal pathway in palmitic acid-stimulated mouse AML12 cells assessed as increase in pACC level under light irradiation at 1 to 10 uM by Western blot analysis; assay type: cell-based; settings: filed as activator, dose 1-10 µM
AML12 [26] = assay: Activation of mitochondrial AMPK signal pathway in palmitic acid-stimulated mouse AML12 cells under light irradiation in presence of AMPK inhibitor by Western blot analysis; assay type: cell-based
AML12 [27] = assay: Inhibition of excessive lipid deposition in mouse AML12 cells assessed as decrease in palmitic acid-induced lipid content by Oil Red O staining based analysis; assay type: functional, cell-based; settings: dose 1-10 µM
AML12 [28] = assay: Inhibition of excessive lipid deposition in mouse AML12 cells assessed as decrease in palmitic acid-induced free fatty acid at 1 to 10 uM by Oil Red O staining based analysis; assay type: functional, cell-based; settings: dose 1-10 µM
AML12 [29] = assay: Inhibition of excessive lipid deposition in mouse AML12 cells assessed as decrease in palmitic acid-induced total triglycerides at 1 to 10 uM by Oil Red O staining based analysis; assay type: functional, cell-based; settings: dose 1-10 µM
AML12 [30] = assay: Inhibition of excessive lipid deposition in mouse AML12 cells assessed as decrease in palmitic acid-induced total cholesterol at 1 to 10 uM by Oil Red O staining based analysis; assay type: functional, cell-based; settings: dose 1-10 µM
[31] = Prodrug conversion in mouse AML12 cells assessed as H2S metabolite release at 10 uM incubated for 4 hrs followed by UV light-irradiation for 1 min by WSP-5 probe based analysis; assay type: ADME, cell-based; settings: aml12, 4.017 h, time 241 min

Activity [1]: Active | Drug uptake [3]: 100% | Drug metabolism [4]: metabolite_detected | Drug metabolism [5]: metabolite_detected | Drug metabolism [6]: metabolite_detected | Drug metabolism [17]: metabolite_detected
SMILES: Cc1cc(C)c(C(C)(C)CC(=O)S)c(OC(=O)OCc2cc3ccc(OCc4cc(OCCCC[P+](c5ccccc5)(c5ccccc5)c5ccccc5)ccc4[N+](=O)[O-])cc3oc2=O)c1
Activity (AML12 [2]): Non-toxic | Activity (AML12 [7]): Active | Activity (AML12 [8]): Active | Activity (AML12 [9]): inactive | Activity (AML12 [10]): Active | Activity (AML12 [11]): Active | Activity (AML12 [12]): Active | Activity (AML12 [13]): Active | Activity (AML12 [14]): Active | Activity (AML12 [15]): Dose-dependent-effect; Activity Superior To M2, Ap39, Adt-Oh | inhibition (AML12 [16]): inactive | inhibition (AML12 [18]): Active | inhibition (AML12 [19]): inactive | Activity (AML12 [20]): Dose-dependent-effect; Exhibited More Potency Than Ap39 And Adt-Oh | Activity (AML12 [21]): Dose-dependent-effect; Exhibited More Potency Than Ap39 And Adt-Oh | Activity (AML12 [22]): Active | Activity (AML12 [23]): inactive | Activity (AML12 [24]): inactive | Activity (AML12 [25]): Active; Exhibited More Potency Than Ap39 And Adt-Oh | Activity (AML12 [26]): inactive | inhibition (AML12 [27]): Dose-dependent-effect; Exhibited As More Effective Than Ap39 And Adt-Oh | inhibition (AML12 [28]): Active | inhibition (AML12 [29]): Active | inhibition (AML12 [30]): Active

Drug metabolism [31]: metabolite_detected
SMILES: O=C(CCCCCCCCC[P+](c1ccccc1)(c1ccccc1)c1ccccc1)Oc1ccc(-c2cc(=S)ss2)cc1.[Br-]
inhibition (AML12 [16]): inactive

SMILES: Oc1ccc(-c2cc(=S)ss2)cc1
inhibition (AML12 [16]): inactive

Drug metabolism [4]: metabolite_notdetected
SMILES: Cc1cc(C)c(C(C)(C)CC(=O)S)c(OC(=O)OCc2cc3ccc(OCc4ccccc4[N+](=O)[O-])cc3oc2=O)c1
Activity (AML12 [2]): Non-toxic | inhibition (AML12 [16]): inactive
